Our source for the TGI and GI50 values is PubChem BioAssay (NCI).

Common to all, as to assay: growth of human tumour cells (NCI), 48 h
The test system of assay [1] is A498 renal.
Assay [2] concerns A549 NSCLC.
In assay [3] the test system is M14 melanoma.
The subject of assay [4] is NCI-H23 lung.
The test system of assay [5] is SF-268 CNS.
For assay [6], the system named is TK-10 renal.
Assay [7] has as its system ACHN renal.
In assay [8] the test system is BT-549 breast.
Assay [9] relates to MDA-N.
Assay [10] deals with NCI-H226 lung.
Assay [11] concerns OVCAR-4 ovarian.
For assay [12], the system named is PC-3 prostate.

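Dose response: 5 concentrations. Exposure: 48 h. Format: 96-well plates. Endpoint: linear interpolation; highest concentration if not reached. The concentration for 50% growth inhibition is given as GI50. TGI marks complete inhibition of growth.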

On to `NCCCCC(=O)c1cccnc1`, for which the TGI in assay [1], in assay [2], in assay [3], in assay [4], in assay [5] and in assay [6] was over 100 µM each time.
In the case of `Cc1nn2c(C(=O)N/N=C/c3ccc([N+](=O)[O-])cc3)c(C)nc2s1`, the TGI in assay [1], in assay [2], in assay [7], in [8], in assay [3] and in assay [9] was over 100 µM each time. The TGI in assay [10], in assay [4], in assay [11], in [5] and in assay [6] was over 100 µM in each case.
For `CC1Cc2cc(O)c(O)cc2-c2cc(O)c(O)cc2CC1C` (centres undefined), the TGI in assay [1] came to 56.8 µM; in [2], 71.1 µM; in assay [7], 87.1 µM; in assay [3] it was 29.7 µM; in [9], 11.7 µM; in [10] it was 67.8 µM. Further, the TGI in [4] was 38.6 µM; in assay [11] it was 33.9 µM; in [12] it was 61.5 µM; in assay [5], over 100 µM; in assay [6], 86.4 µM.
On to `O=C1NC(N2CCCCC2)=N/C1=C\c1ccccc1O`, for which the TGI in assay [1], in assay [2], in assay [7], in assay [3], in assay [9] and in assay [10] was over 100 µM in each case. Further, the TGI is over 100 µM in assay [4]; 91.4 µM in assay [11]; over 100 µM in [12]; over 100 µM in assay [5]; over 100 µM in assay [6].
Regarding `O=C(CC(=O)N1N=C(N(c2ccccc2)c2ccccc2)CC1c1ccccc1)Nc1ccc(Cl)cc1` (centres undefined), the TGI in assay [2], in assay [7], in assay [8], in assay [3], in [10] and in [4] was over 100 µM throughout. Moreover, the TGI in assay [11], in [12], in [5] and in [6] was over 100 µM in each case.
In the case of `COc1ccc(/C=C/C(=O)CC(=O)/C=C/c2ccc(OC)cc2)cc1`, the TGI in assay [2] was over 100 µM; in assay [3] it was over 100 µM; in assay [9], over 100 µM; in assay [10], over 100 µM; in [4] it was 95.1 µM; in assay [12], over 100 µM. Also, in [5], the TGI was over 100 µM.
In the case of `COc1ccc(/C=C2\Sc3nnc(CNc4ccc(Cl)cc4)n3N=C2c2cc(F)c(Cl)cc2Cl)cc1OC`, the TGI in assay [1], in [7], in assay [3], in assay [9], in assay [10] and in assay [4] was over 100 µM each time. The TGI in assay [11], in assay [12], in [5] and in [6] was over 100 µM each time.
`O=S(=O)(c1ccccc1)n1cc(C[P+](c2ccccc2)(c2ccccc2)c2ccccc2)c2ccccc21`: the TGI in assay [1] was found to be 30 µM; in assay [2], 24.8 µM; in [7] it was 28.7 µM; in assay [3] it was 7.04 µM; in assay [10], 18.1 µM; in assay [4], 17.8 µM. In addition, the TGI in assay [11] was 22 µM; in assay [5], 18.6 µM; in assay [6], 16.9 µM.
`O=C(O)CN1CCN(CC(=O)N2CCN(C(=O)OCc3ccccc3)CC2)CCN(CC(=O)O)CCN(CC(=O)N2CCN(C(=O)OCc3ccccc3)CC2)CC1`: the TGI in assay [1], in [2], in assay [7], in assay [8], in assay [3] and in assay [10] was over 100 µM throughout. In addition, the TGI in [11], in assay [12] and in [6] was over 100 µM each time.
Turning to `CC1(S)CC2C(CC1Sc1ccccc1)C2(C)C` (centres undefined), the TGI in assay [2], in assay [7], in assay [3], in [10], in assay [4] and in [11] was over 100 µM in each case. Also, the TGI in assay [5] and in assay [6] was over 100 µM each time.
Regarding `C[C@@H]1C2=CC[C@@]3(C)C(CCC3[C@H](C)[C@H]3C[C@@]4(C)O[C@@](c5cccnc5)(O3)OC4(C)C)[C@@H]2C2OC2[C@@]12CCC(=O)O2` (some centres undefined), the TGI is over 100 µM in [1]; over 100 µM in assay [2]; over 100 µM in assay [7]; 60.6 µM in assay [3]; over 100 µM in assay [4]; over 100 µM in [5]. The same compound showed a TGI in [6] of over 100 µM.
With `COC(=O)C1=C(C(=O)OC)SC(=C2S[C@@H]3[C@@H]4C[C@H]([C@@H]3S2)[C@H]2C(=O)OC(=O)[C@@H]42)S1`, the TGI in assay [1], in assay [2], in assay [7], in assay [8], in assay [3] and in assay [10] was over 100 µM in each case. The TGI in assay [4], in assay [11], in assay [12], in assay [5] and in assay [6] was over 100 µM each time.
`Cc1cc(=O)[nH]c(NNC(C#N)c2c(O)ccc3ccccc23)n1` (centres undefined): the TGI in assay [2] came out at 18.5 µM; in assay [7], 13 µM; in [3] it was 15.6 µM; in assay [10], 17.6 µM; in [4] it was 20.5 µM; in assay [11], 31.1 µM. Moreover, the TGI in assay [5] worked out at 40.7 µM; in assay [6], 65.8 µM.
As to `O/N=C(\CC(O)(C(F)(F)F)C(F)(F)F)c1cccc(Cl)c1`, the TGI in assay [1] was over 100 µM; in assay [2], over 100 µM; in assay [7], 65.9 µM; in assay [3], 62.7 µM; in [9], over 100 µM; in [10], 60.2 µM. The TGI was 49.2 µM in assay [4], over 100 µM in assay [11], 83.3 µM in [12] and 98.8 µM in assay [6].
On to `CCCCOCc1cc(CN2CCN(C)CC2)c(O)c2ncccc12`, for which the TGI was 78.9 µM in [1]; over 100 µM in assay [2]; 54.2 µM in [7]; 90 µM in assay [3]; 88.4 µM in assay [10]; 47.6 µM in assay [4]. Also, the TGI in [11], in [5] and in assay [6] was over 100 µM throughout.
For the compound `N=C(N)c1ccc(-c2ccc(-c3cccs3)s2)s1`, the GI50 in assay [1] is 0.279 µM; in [7], 1.66 µM; in assay [10] it was 6.89 µM; in assay [4], 1.62 µM; in [11], 1.33 µM; in [12], 1.53 µM. In addition, the GI50 is 1.79 µM in [5] and 1.48 µM in [6]. The TGI in [1] was 0.846 µM; in [7], 3.09 µM; in assay [10], 52.4 µM; in assay [4], 3.42 µM; in [11], 4.16 µM; in [12], 2.98 µM. Moreover, the values for the TGI in assay [5] and in assay [6] were 3.48 µM and 2.89 µM, respectively.
As for `[O-][N+]1=NC(c2ccccc2)=C1c1ccccc1`, the TGI in assay [1], in assay [2], in [7], in [3], in assay [9] and in [10] was over 50 µM in each case. Further, the TGI in assay [4], in [11], in assay [12], in assay [5] and in assay [6] was over 50 µM in each case.
Regarding `Cc1ccc(C(O)(c2ccc(C)cc2)c2ccccn2)cc1`, the TGI in [1], in [2], in [7], in assay [3], in [10] and in assay [4] was over 100 µM throughout. In addition, the TGI in [11], in [5] and in assay [6] was over 100 µM in each case.
As to `COC(=O)c1c[nH]c2c1-c1cc(C(=O)OCc3ccccc3)n(S(=O)(=O)c3ccc(C)cc3)c1C(=O)C2=O`, the TGI in assay [1] came to 3.16 µM; in assay [2], 1.97 µM; in [7], 0.761 µM; in assay [8] it was 0.342 µM; in assay [3], 0.289 µM; in assay [10], 0.889 µM. Besides, the TGI in [4] worked out at 0.32 µM; in assay [11] it was 1.08 µM; in [12], 1.19 µM; in assay [5] it was 2.27 µM; in [6] it was 4.1 µM.
Regarding `Nc1c(N2CCOCC2)c(=O)nc2[nH]/c(=C\c3ccccc3)c(=O)n12`, the TGI in assay [1], in assay [2], in [7], in assay [3], in [9] and in [10] was over 100 µM each time. Also, the TGI in [4], in assay [11], in assay [5] and in assay [6] was over 100 µM each time.
